From article PMC3423587 (Bioorganic & medicinal chemistry letters, 2012)
pIC50: −log10 of the molar value. One block for each compound: values may come before it.

Legend:
recombinant β-secretase = recombinant β-secretase (Homo sapiens, UniProt P56817); assay: β-secretase inhibitory activity against recombinant β-secretase; details: for fold lower enzyme inhibitory potency: compared to 3a
[1] = test system: β-secretase in neuroblastoma cells; details: Neuroblastoma cell
transgenic AD mice = details: cited from earlier work

recombinant β-secretase, sequence (P56817 46-501): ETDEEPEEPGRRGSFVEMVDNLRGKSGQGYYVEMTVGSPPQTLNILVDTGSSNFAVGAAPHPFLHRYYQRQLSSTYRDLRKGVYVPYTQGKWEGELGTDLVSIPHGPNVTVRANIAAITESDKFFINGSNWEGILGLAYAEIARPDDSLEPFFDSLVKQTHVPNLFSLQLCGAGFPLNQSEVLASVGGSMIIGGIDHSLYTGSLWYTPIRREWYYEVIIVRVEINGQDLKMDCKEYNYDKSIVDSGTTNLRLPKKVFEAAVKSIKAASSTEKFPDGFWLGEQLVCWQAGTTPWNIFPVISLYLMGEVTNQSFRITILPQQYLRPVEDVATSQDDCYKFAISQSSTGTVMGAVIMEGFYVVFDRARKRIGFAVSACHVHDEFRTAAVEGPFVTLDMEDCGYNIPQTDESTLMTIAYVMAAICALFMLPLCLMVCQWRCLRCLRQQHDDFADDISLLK

- fold lower enzyme inhibitory potency (recombinant β-secretase): ~6 fold
Compound: CN(C(=O)CC[C@@H](c1ccccc1)N1Cc2cc(Oc3ccccc3)ccc2N=C1N)C1CCCCC1 [3b]

- fold loss of potency (recombinant β-secretase; compared to 3b): ~5 fold
Compound: CN(C(=O)OC[C@@H](c1ccccc1)N1Cc2cc(Oc3ccccc3)ccc2N=C1N)C1CCCCC1 [3c]

- fold improved potency (recombinant β-secretase; over 3c): 20 fold
Compound: CN(C(=O)OC[C@@H](C1CCCCC1)N1Cc2cc(Oc3ccccc3)ccc2N=C1N)C1CCCCC1 [3d]

- fold lower enzyme inhibitory potency (recombinant β-secretase): ~5 fold
Compound: CN(C(=O)CC[C@@H](C1CCCOC1)N1Cc2cc(Oc3ccccc3)ccc2N=C1N)C1CCCCC1 (stereo partly shown) [3g]

- fold improvement of enzyme activity (recombinant β-secretase; over 4b): ~6 fold
Compound: COCc1nc(CN(C(=O)CC[C@@H](C2CCCCC2)N2Cc3cc(Oc4ccccc4)ccc3N=C2N)C2CCCCC2)cs1 [4f]

- pIC50 [1]: 7.32
Compound: NC1=Nc2ccc(Oc3ccccc3)cc2CN1[C@@H](CCC(=O)N(Cc1cn[nH]c1)C1CCCCC1)C1CCCCC1 [4h]

Compound: COc1cccc(CNC[C@@H](O)[C@H](Cc2ccccc2)NC(=O)c2cc(C(=O)N[C@H](C)c3ccccc3)cc(N(C)S(C)(=O)=O)c2)c1 [GRL-8234]
- effect on cognitive function (transgenic AD mice): rescued the decline of cognitive function
